Experimental data taken from patent US20040231558A1, “Water-color ink” (priority 2001, published 2004).

Assays:
Assay type in all cases: physicochemical
[1] = Evaluation of moisture resistance (image-recorded paper at 40° C. and humidity 85%, visual observation); conditions: image-recorded paper at 40° C. and humidity 85%, visually observed
[2] = Evaluation of light fastness-2 (OD value of printed portion after 400 hours xenon fadeometer); conditions: ink prepared as in Example 1 from the salt named in the row; OD value of printed portion after 400 hours xenon fadeometer
Procedure: (§1) The prepared ink was filled in an ink cartridge for a piezo-type ink-jet printer EM-930C (manufactured by Seiko Epson). The printing was performed with this printer, and the light fastness was evaluated. Further, the storage stability of the ink was evaluated.
(A)-2 Evaluation of Light Fastness-2
Printing density (OD value) was measured after irradiating a printed-portion with light for 400 hours using axenon fadeometer (manufactured by Suga Shikenki), and the light fastness was evaluated.

[3] = Evaluation of light fastness-1 (OD value of printed portion after 100 hours xenon fadeometer); conditions: ink prepared as in Example 1 from the salt named in the row; OD value of printed portion after 100 hours xenon fadeometer
Procedure: as §1
(A)-1 Evaluation of Light Fastness-1
Printing density (OD value) was measured after irradiating a printed portion with light for 100 hours using a xenon fadeometer (manufactured by Suga Shikenki) to evaluate the light fastness.

[4] = Evaluation of storage stability of ink (40° C. for 3 months, insoluble matter and clogging); conditions: recording liquid stored at 40° C. for 3 months; insoluble matter and clogging
Procedure: as §1
(C) Evaluation of Storage Stability of Ink:
After a recording liquid was stored at 40° C. for 3 months, it was observedwhether or not an insoluble matterwas precipitated, and whether or not clogging occurred after continuous recording with the foregoing printer for a long period of time.

CCCCc1c(N=Nc2cc(C(=O)O)ccc2C(=O)O)c(O)n(CCNc2nc(Cl)nc(NCCn3c(O)c(N=Nc4cc(C(=O)O)ccc4C(=O)O)c(CCCC)c(C#N)c3=O)n2)c(=O)c1C#N [Compound 278]
(B) moisture resistance [1]: ⊚
(A)-2 light fastness-2 [2]: ◯
(A)-1 light fastness-1 [3]: ⊚
(C) storage stability [4]: Δ

CCc1c(N=Nc2cc(C(=O)O)ccc2C(=O)O)c(O)n(CCCNC(=O)c2cc(C(=O)O)c(C(=O)NCCCn3c(O)c(N=Nc4cc(C(=O)O)ccc4C(=O)O)c(C)c(C#N)c3=O)cc2C(=O)O)c(=O)c1C#N [Compound 280]
(B) moisture resistance [1]: ⊚
(A)-2 light fastness-2 [2]: ⊚
(A)-1 light fastness-1 [3]: ⊚
(C) storage stability [4]: ◯

Cc1c(N=Nc2cc(C(=O)O)ccc2C(=O)O)c(O)n(CCCCCCNC(=O)c2cc(C(=O)O)c(C(=O)NCCCCCCn3c(O)c(N=Nc4cc(C(=O)O)ccc4C(=O)O)c(C)c(C#N)c3=O)cc2C(=O)O)c(=O)c1C#N [Compound 281]
(B) moisture resistance [1]: ⊚
(A)-2 light fastness-2 [2]: ◯
(A)-1 light fastness-1 [3]: ⊚
(C) storage stability [4]: ◯

CCc1c(N=Nc2cc(C(=O)O)ccc2C(=O)O)c(O)n(CCNC(=O)c2cc(C(=O)O)c(C(=O)NCCn3c(O)c(N=Nc4cc(C(=O)O)ccc4C(=O)O)c(CC)c(C#N)c3=O)cc2C(=O)O)c(=O)c1C#N [Compound 283]
(B) moisture resistance [1]: ⊚
(A)-2 light fastness-2 [2]: ⊚⊚
(A)-1 light fastness-1 [3]: ⊚
(C) storage stability [4]: ◯

CCCCc1c(N=Nc2cc(C(=O)O)ccc2C(=O)O)c(O)n(CCNC(=O)c2cc(C(=O)O)c(C(=O)NCCn3c(O)c(N=Nc4cc(C(=O)O)ccc4C(=O)O)c(CCCC)c(C#N)c3=O)cc2C(=O)O)c(=O)c1C#N [Compound 284]
(B) moisture resistance [1]: ⊚
(A)-2 light fastness-2 [2]: ⊚⊚
(A)-1 light fastness-1 [3]: ⊚
(C) storage stability [4]: ◯

N#Cc1c(-c2ccccc2)c(N=Nc2cc(C(=O)O)ccc2C(=O)O)c(O)n(CCNC(=O)c2cc(C(=O)O)c(C(=O)NCCn3c(O)c(N=Nc4cc(C(=O)O)ccc4C(=O)O)c(-c4ccccc4)c(C#N)c3=O)cc2C(=O)O)c1=O [Compound 285]
(B) moisture resistance [1]: ⊚
(A)-2 light fastness-2 [2]: ⊚⊚
(A)-1 light fastness-1 [3]: ⊚
(C) storage stability [4]: ◯

N#Cc1c(-c2ccccc2)c(N=Nc2cc(C(=O)O)ccc2C(=O)O)c(O)n(CCCCCCNC(=O)c2cc(C(=O)O)c(C(=O)NCCCCCCn3c(O)c(N=Nc4cc(C(=O)O)ccc4C(=O)O)c(-c4ccccc4)c(C#N)c3=O)cc2C(=O)O)c1=O [Compound 287]
(B) moisture resistance [1]: ⊚
(A)-2 light fastness-2 [2]: ⊚
(A)-1 light fastness-1 [3]: ⊚
(C) storage stability [4]: ◯

N#Cc1c(C(F)(F)F)c(N=Nc2cc(C(=O)O)ccc2C(=O)O)c(O)n(CCNC(=O)c2cc(C(=O)O)c(C(=O)NCCn3c(O)c(N=Nc4cc(C(=O)O)ccc4C(=O)O)c(C(F)(F)F)c(C#N)c3=O)cc2C(=O)O)c1=O [Compound 291]
(B) moisture resistance [1]: ⊚
(A)-2 light fastness-2 [2]: ⊚⊚
(A)-1 light fastness-1 [3]: ⊚
(C) storage stability [4]: ◯

Cc1c(N=Nc2cccc(C(=O)O)c2C(=O)O)c(O)n(CCNC(=O)c2cc(C(=O)O)c(C(=O)NCCn3c(O)c(N=Nc4cccc(C(=O)O)c4C(=O)O)c(C)c(C#N)c3=O)cc2C(=O)O)c(=O)c1C#N [Compound 293]
(B) moisture resistance [1]: ⊚
(A)-2 light fastness-2 [2]: ⊚⊚
(A)-1 light fastness-1 [3]: ⊚
(C) storage stability [4]: ◯

Cc1c(N=Nc2cc(C(=O)O)ccc2C(=O)O)c(O)n(CCNc2nc(O)nc(NCCn3c(O)c(N=Nc4cc(C(=O)O)ccc4C(=O)O)c(C)c(C#N)c3=O)n2)c(=O)c1C#N [Compound 294]
(B) moisture resistance [1]: ⊚
(A)-2 light fastness-2 [2]: ◯
(A)-1 light fastness-1 [3]: ⊚
(C) storage stability [4]: Δ

Cc1c(N=Nc2cc(C(=O)O)ccc2C(=O)O)c(O)n(CCNC(=O)c2cc(C(=O)NCCn3c(O)c(N=Nc4cc(C(=O)O)ccc4C(=O)O)c(C)c(C#N)c3=O)c(C(=O)O)cc2C(=O)O)c(=O)c1C#N [Compound 296]
(B) moisture resistance [1]: ⊚
(A)-2 light fastness-2 [2]: ⊚
(A)-1 light fastness-1 [3]: ⊚
(C) storage stability [4]: ◯

CCc1c(N=Nc2cc(C(=O)O)ccc2C(=O)O)c(O)n(CCNC(=O)c2cc(C(=O)NCCn3c(O)c(N=Nc4cc(C(=O)O)ccc4C(=O)O)c(CC)c(C#N)c3=O)c(C(=O)O)cc2C(=O)O)c(=O)c1C#N [Compound 297]
(B) moisture resistance [1]: ⊚
(A)-2 light fastness-2 [2]: ⊚
(A)-1 light fastness-1 [3]: ⊚
(C) storage stability [4]: ◯

Cc1c(N=Nc2cc(C(=O)O)ccc2C(=O)O)c(O)n(CCCCCCNC(=O)c2cc(C(=O)NCCCCCCn3c(O)c(N=Nc4cc(C(=O)O)ccc4C(=O)O)c(C)c(C#N)c3=O)c(C(=O)O)cc2C(=O)O)c(=O)c1C#N [Compound 299]
(B) moisture resistance [1]: ⊚
(A)-2 light fastness-2 [2]: ◯
(A)-1 light fastness-1 [3]: ⊚
(C) storage stability [4]: ◯

Cc1c(N=Nc2cc(C(=O)O)ccc2C(=O)O)c(O)n(CCNC(=O)c2ccc(C(=O)NCCn3c(O)c(N=Nc4cc(C(=O)O)ccc4C(=O)O)c(C)c(C#N)c3=O)c(C(=O)NCCn3c(O)c(N=Nc4cc(C(=O)O)ccc4C(=O)O)c(C)c(C#N)c3=O)c2)c(=O)c1C#N [Compound 305]
(B) moisture resistance [1]: ⊚
(A)-2 light fastness-2 [2]: ⊚
(A)-1 light fastness-1 [3]: ⊚
(C) storage stability [4]: Δ

CCc1c(N=Nc2cc(C(=O)O)ccc2C(=O)O)c(O)n(CCNC(=O)c2ccc(C(=O)NCCn3c(O)c(N=Nc4cc(C(=O)O)ccc4C(=O)O)c(CC)c(C#N)c3=O)c(C(=O)NCCn3c(O)c(N=Nc4cc(C(=O)O)ccc4C(=O)O)c(CC)c(C#N)c3=O)c2)c(=O)c1C#N [Compound 308]
(B) moisture resistance [1]: ⊚
(A)-2 light fastness-2 [2]: ⊚
(A)-1 light fastness-1 [3]: ⊚
(C) storage stability [4]: Δ

Cc1c(N=Nc2cc(C(=O)O)ccc2C(=O)O)c(O)n(CCCCCCNC(=O)c2cc(C(=O)NCCCCCCn3c(O)c(N=Nc4cc(C(=O)O)ccc4C(=O)O)c(C)c(C#N)c3=O)c(C(=O)NCCn3c(O)c(N=Nc4cc(C(=O)O)ccc4C(=O)O)c(C)c(C#N)c3=O)cc2C(=O)NCCCCCCn2c(O)c(N=Nc3cc(C(=O)O)ccc3C(=O)O)c(C)c(C#N)c2=O)c(=O)c1C#N [Compound 312]
(B) moisture resistance [1]: ⊚
(A)-2 light fastness-2 [2]: ⊚
(A)-1 light fastness-1 [3]: ⊚
(C) storage stability [4]: Δ

Cc1c(N=Nc2cc(C(=O)O)ccc2C(=O)O)c(O)n(CCNc2nc(NCCn3c(O)c(N=Nc4cc(C(=O)O)ccc4C(=O)O)c(C)c(C#N)c3=O)nc(SCCC(=O)O)n2)c(=O)c1C#N [Compound 321]
(B) moisture resistance [1]: ⊚
(A)-2 light fastness-2 [2]: ◯
(A)-1 light fastness-1 [3]: ⊚
(C) storage stability [4]: Δ

Cc1c(N=Nc2ccccc2C(=O)O)c(O)n(CCNC(=O)c2cc(C(=O)O)c(C(=O)NCCn3c(O)c(N=Nc4ccccc4C(=O)O)c(C)c(C#N)c3=O)cc2C(=O)O)c(=O)c1C#N [Compound 323]
(B) moisture resistance [1]: ⊚
(A)-2 light fastness-2 [2]: ⊚
(A)-1 light fastness-1 [3]: ⊚
(C) storage stability [4]: Δ

CCc1c(N=Nc2cc(C(=O)O)ccc2C(=O)O)c(O)n(CCn2c(=O)c3cc4c(=O)n(CCn5c(O)c(N=Nc6cc(C(=O)O)ccc6C(=O)O)c(CC)c(C#N)c5=O)c(=O)c4cc3c2=O)c(=O)c1C#N [Compound 335]
(B) moisture resistance [1]: ⊚
(A)-2 light fastness-2 [2]: ⊚⊚
(A)-1 light fastness-1 [3]: ⊚
(C) storage stability [4]: ◯

CC(C)(C)c1c(N=Nc2cc(C(=O)O)ccc2C(=O)O)c(O)n(CCn2c(=O)c3cc4c(=O)n(CCn5c(O)c(N=Nc6cc(C(=O)O)ccc6C(=O)O)c(C(C)(C)C)c(C#N)c5=O)c(=O)c4cc3c2=O)c(=O)c1C#N [Compound 336]
(B) moisture resistance [1]: ⊚
(A)-2 light fastness-2 [2]: ⊚⊚
(A)-1 light fastness-1 [3]: ⊚
(C) storage stability [4]: ◯

Cc1c(N=Nc2cc(C(=O)O)ccc2C(=O)O)c(O)n(CCn2c(=O)c3cc4c(=O)n(CCn5c(O)c(N=Nc6cc(C(=O)O)ccc6C(=O)O)c(C)c(C#N)c5=O)c(=O)c4cc3c2=O)c(=O)c1C#N [Compound 342]
(B) moisture resistance [1]: ⊚
(A)-2 light fastness-2 [2]: ⊚
(A)-1 light fastness-1 [3]: ⊚
(C) storage stability [4]: ◯

Cc1c(N=Nc2cc(C(=O)O)ccc2C(=O)O)c(O)n(CCNc2nc(Cl)nc(NCCn3c(O)c(N=Nc4cc(C(=O)O)ccc4C(=O)O)c(C)c(C#N)c3=O)n2)c(=O)c1C#N [Compound No. 245]
(B) moisture resistance [1]: ⊚
(A)-2 light fastness-2 [2]: ◯
(A)-1 light fastness-1 [3]: ⊚
(C) storage stability [4]: ◯

Cc1c(N=Nc2cc(C(=O)O)ccc2C(=O)O)c(O)n(CCCCCCNc2nc(Cl)nc(NCCCCCCn3c(O)c(N=Nc4cc(C(=O)O)ccc4C(=O)O)c(C)c(C#N)c3=O)n2)c(=O)c1C#N [Compound No. 246]
(B) moisture resistance [1]: ⊚
(A)-2 light fastness-2 [2]: Δ
(A)-1 light fastness-1 [3]: ⊚
(C) storage stability [4]: Δ

Cc1c(N=Nc2cc(C(=O)O)ccc2C(=O)O)c(O)n(CCNC(=O)c2cc(C(=O)O)c(C(=O)NCCn3c(O)c(N=Nc4cc(C(=O)O)ccc4C(=O)O)c(C)c(C#N)c3=O)cc2C(=O)O)c(=O)c1C#N [Compound No. 279]
(B) moisture resistance [1]: ⊚
(A)-2 light fastness-2 [2]: ⊚
(A)-1 light fastness-1 [3]: ⊚
(C) storage stability [4]: ◯

Cc1c(N=Nc2cccc(C(=O)O)c2C(=O)O)c(O)n(CC(O)C(O)C(O)C(O)C(O)CO)c(=O)c1C#N (stereo not shown) [compound 29]
(B) moisture resistance [1]: ◯
(A)-2 light fastness-2 [2]: ◯ and Δ
(A)-1 light fastness-1 [3]: ⊚
(C) storage stability [4]: ◯ and Δ
